The record followed here is PubChem BioAssay (NCI).

Test systems include SNB-19 CNS; SNB-75 CNS; SK-MEL-28 melanoma; OVCAR-3 ovarian; A498 renal; MALME-3M melanoma; HT29 colon; MOLT-4 leukemia; NCI-H460 lung; 786-0 renal.
Common to all, as to assay: inhibition of tumour cell growth, NCI panel, 48 h

Several values for one entry are separate records, joined by “and”; a condition that tells them apart may be missing. Equal entries are not always repeated.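 Dose response: 5 concentrations. Exposure: 48 h. Format: 96-well plates. Endpoint: linear interpolation; highest concentration if not reached. GI50: concentration for 50% inhibition of growth. TGI is the concentration that stops growth completely.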

`CCCCCCCCCCCCCC(=O)OCC1OC(n2cc(F)c(=O)[nH]c2=O)C(NC(=O)OCc2ccccc2)C(OC(=O)CCCCCCCCCCCCC)C1O` (stereo unspecified): the TGI in the assay on SNB-19 CNS, in the assay with SNB-75 CNS, in the assay on SK-MEL-28 melanoma, in the assay with OVCAR-3 ovarian, in the assay with A498 renal and in the assay on MALME-3M melanoma was above 100 µM throughout. Besides, the TGI with HT29 colon, with MOLT-4 leukemia, in the assay with NCI-H460 lung and in the assay on 786-0 renal was above 100 µM throughout.

Consider `N#Cc1c2c(c(N=P(c3ccccc3)(c3ccccc3)c3ccccc3)n3c1nc1ccccc13)CCCC2`, for which the TGI in the assay with SNB-19 CNS is 99.2 µM; with SNB-75 CNS, 69.7 µM; with SK-MEL-28 melanoma, above 100 µM; in the assay with OVCAR-3 ovarian it was 86.1 µM; in the assay on A498 renal, 73.2 µM; in the assay with MALME-3M melanoma, above 100 µM. Moreover, the TGI is 74.9 µM with HT29 colon, 64.2 µM in the assay with MOLT-4 leukemia, 56.5 µM in the assay with NCI-H460 lung and above 100 µM in the assay on 786-0 renal.

In the case of `COc1ccc(C2CC(c3cc(C)ccc3O)=NC(N)=N2)cc1` (stereo unspecified), the TGI in the assay on SNB-19 CNS, with SNB-75 CNS, in the assay on SK-MEL-28 melanoma, in the assay on OVCAR-3 ovarian, in the assay with A498 renal and with MALME-3M melanoma was above 100 µM in each case. The TGI in the assay with HT29 colon, in the assay with MOLT-4 leukemia, in the assay with NCI-H460 lung and with 786-0 renal was above 100 µM each time.

With `CC1=CC(=C(c2ccc(N)cc2)c2ccc(N)cc2)C=CC1=N`, the GI50 with SNB-19 CNS was 0.494 µM; in the assay with SNB-75 CNS, 0.428 µM and 0.455 µM and 2.31 µM; in the assay with SK-MEL-28 melanoma, 0.789 µM and 4.57 µM; in the assay with OVCAR-3 ovarian, 1.41 µM and 2.14 µM; in the assay with A498 renal it was 2.2 µM; with MALME-3M melanoma, 0.771 µM. The GI50 was 0.558 µM and 3.08 µM with HT29 colon; 1.49 µM in the assay with MOLT-4 leukemia; 0.838 µM in the assay on NCI-H460 lung; 1.64 µM and 8.26 µM with 786-0 renal. Further, the TGI is 14.4 µM and 20.1 µM and 28.1 µM in the assay with SNB-19 CNS; 7.89 µM and 36.8 µM and 19.6 µM in the assay with SK-MEL-28 melanoma; 5.49 µM and 15.1 µM and 5.5 µM with OVCAR-3 ovarian; > 27.4 µM and > 100 µM and 32.2 µM in the assay on A498 renal; 6.18 µM and 11.2 µM and 11.7 µM in the assay with MALME-3M melanoma; 10.7 µM and 29.9 µM and 11.3 µM in the assay with HT29 colon. Besides, the TGI was 6.77 µM and > 67 µM in the assay with MOLT-4 leukemia; 7.3 µM and 28.9 µM and 15.8 µM in the assay with NCI-H460 lung; 6.53 µM and 26.1 µM and 31.7 µM in the assay with 786-0 renal.

As to `CC(C)(C)OC(=O)NCCc1cccc2c1oc1c(CCC(=O)O)cccc12`, the TGI with SNB-19 CNS, in the assay on SNB-75 CNS, with SK-MEL-28 melanoma, with OVCAR-3 ovarian, with A498 renal and in the assay on MALME-3M melanoma was above 100 µM each time. The TGI in the assay with HT29 colon, with MOLT-4 leukemia, in the assay on NCI-H460 lung and in the assay on 786-0 renal was above 100 µM each time.

Consider `Cn1cc(C2=C(c3cn(C)c4c([N+](=O)[O-])cccc34)C(=O)NC2=O)c2ccccc21`, for which the GI50 in the assay on SNB-19 CNS, in the assay with SNB-75 CNS, in the assay with SK-MEL-28 melanoma, with OVCAR-3 ovarian, in the assay with A498 renal and in the assay on MALME-3M melanoma was above 25 µM each time. The GI50 in the assay on HT29 colon, in the assay on MOLT-4 leukemia, in the assay on NCI-H460 lung and with 786-0 renal was above 25 µM each time. In addition, the TGI in the assay with SNB-19 CNS, in the assay on SNB-75 CNS, with SK-MEL-28 melanoma, in the assay on OVCAR-3 ovarian, in the assay on A498 renal and in the assay with MALME-3M melanoma was above 25 µM in each case. Further, the TGI in the assay with HT29 colon, with MOLT-4 leukemia, in the assay on NCI-H460 lung and with 786-0 renal was above 25 µM throughout.

As for `CC(=O)OC1CCCn2c1nc1c2C(=O)C(C)=C(N2CC2)C1=O` (stereo unspecified), the TGI with SNB-19 CNS turned out to be 1.38 µM; in the assay on SNB-75 CNS it was 0.808 µM; in the assay with SK-MEL-28 melanoma, 1.14 µM; in the assay on OVCAR-3 ovarian, 1.39 µM; in the assay with A498 renal, 0.36 µM; in the assay with MALME-3M melanoma, 0.47 µM. Moreover, the TGI is 0.645 µM with HT29 colon, above 100 µM in the assay on MOLT-4 leukemia, 0.296 µM with NCI-H460 lung and 1.65 µM in the assay with 786-0 renal.

Take `CC(/C(=N\Nc1ccccc1)c1ccc(O)cc1)C1C(=O)Oc2ccccc21` (stereo unspecified): the TGI with SNB-19 CNS, in the assay on SNB-75 CNS, in the assay with OVCAR-3 ovarian, with A498 renal, in the assay with MALME-3M melanoma and in the assay on HT29 colon was above 100 µM throughout. Moreover, the TGI in the assay with MOLT-4 leukemia, in the assay on NCI-H460 lung and in the assay on 786-0 renal was above 100 µM each time.

For the compound `COC(=O)C(C(=O)C(=O)Nc1nc(=S)[nH][nH]1)c1csc(-n2nc(-c3ccccc3)cc2-c2ccccc2)n1` (stereo unspecified), the TGI with SNB-19 CNS is above 100 µM; in the assay on SNB-75 CNS, 78.5 µM; with OVCAR-3 ovarian, above 100 µM; in the assay with A498 renal it was above 100 µM; in the assay with MALME-3M melanoma, above 100 µM; in the assay on HT29 colon it was above 100 µM. In addition, the TGI in the assay on MOLT-4 leukemia, with NCI-H460 lung and in the assay with 786-0 renal was above 100 µM in each case.

With `O=C1c2ccccc2S(=O)(=O)N1CSC(=S)N1CCCCC1`, the GI50 in the assay with SNB-19 CNS, in the assay with SNB-75 CNS, with SK-MEL-28 melanoma, in the assay with OVCAR-3 ovarian, in the assay on A498 renal and in the assay on MALME-3M melanoma was above 100 µM each time. For the same compound, the values for the GI50 in the assay with HT29 colon, in the assay with NCI-H460 lung and with 786-0 renal were above 29.2 µM, 5.5 µM and above 100 µM, respectively. Also, the TGI in the assay on SNB-19 CNS, with SNB-75 CNS, with SK-MEL-28 melanoma, in the assay with OVCAR-3 ovarian, in the assay with A498 renal and in the assay with MALME-3M melanoma was above 100 µM in each case. For the same compound, the TGI in the assay on HT29 colon, in the assay with NCI-H460 lung and in the assay on 786-0 renal was above 100 µM throughout.

On to `COc1c(C(=O)c2ccc([N+](=O)[O-])cc2)cc(C(C)(C)C)cc1C(C)(C)C`, for which the TGI in the assay with SNB-19 CNS is above 100 µM; with SNB-75 CNS, above 100 µM; in the assay with SK-MEL-28 melanoma it was 72.8 µM; with A498 renal, above 100 µM; with MALME-3M melanoma, above 100 µM; in the assay on HT29 colon, 88 µM. The TGI is 39.9 µM in the assay with MOLT-4 leukemia, above 100 µM in the assay on NCI-H460 lung and above 100 µM in the assay on 786-0 renal.

As to `COC(=O)C(=O)C(C(=O)C(=O)Nc1nc2ccc(C)cc2s1)c1nc2ccc([N+](=O)[O-])cc2[nH]c1=O` (stereo unspecified), the TGI in the assay on SNB-19 CNS, in the assay on SNB-75 CNS, in the assay on SK-MEL-28 melanoma, in the assay on OVCAR-3 ovarian, in the assay with A498 renal and in the assay on MALME-3M melanoma was above 100 µM each time. Moreover, the TGI in the assay with HT29 colon, in the assay on NCI-H460 lung and in the assay with 786-0 renal was above 100 µM each time.

`COc1cc(OC)c(/C=C\c2ccnc3ccccc23)c(OC)c1`: the TGI in the assay with SNB-19 CNS stood at 18.2 µM; in the assay with SK-MEL-28 melanoma, 17.9 µM; in the assay on OVCAR-3 ovarian, 12.8 µM; in the assay with A498 renal it was 9.87 µM; in the assay with MALME-3M melanoma, 16.5 µM; in the assay with HT29 colon, 11.8 µM. For the same compound, the TGI with MOLT-4 leukemia came out at 11.8 µM; with NCI-H460 lung it was 14.2 µM; in the assay on 786-0 renal, 17.8 µM.

As to `CC1COc2c(N3CCN(C)CC3)c(F)cc3c(=O)c(C(=O)O)cn1c23` (stereo unspecified), the GI50 with SNB-19 CNS, in the assay on SNB-75 CNS, with SK-MEL-28 melanoma, in the assay with OVCAR-3 ovarian, in the assay with A498 renal and with MALME-3M melanoma was above 100 µM each time. Besides, the GI50 with HT29 colon, in the assay with NCI-H460 lung and in the assay with 786-0 renal was above 100 µM in each case. Further, the TGI in the assay on SNB-19 CNS, in the assay with SNB-75 CNS, with SK-MEL-28 melanoma, in the assay on OVCAR-3 ovarian, in the assay with A498 renal and in the assay with MALME-3M melanoma was above 100 µM in each case. Further, the TGI with HT29 colon, in the assay on NCI-H460 lung and with 786-0 renal was above 100 µM throughout.

As for `N/N=C(\C(=O)Nc1ccc(Cl)cc1Cl)C(c1cnc2ccccc2n1)[N+](=O)[O-]` (stereo unspecified), the TGI in the assay with SNB-75 CNS, in the assay with SK-MEL-28 melanoma, in the assay on OVCAR-3 ovarian, with A498 renal, in the assay on MALME-3M melanoma and with HT29 colon was above 100 µM each time. For the same compound, the TGI with NCI-H460 lung and with 786-0 renal was above 100 µM throughout.

On to `O=C(c1ccccc1)N1C2CCC1C(C(F)(F)F)=C2C(F)(F)F`, for which the TGI in the assay with SNB-19 CNS, in the assay with SNB-75 CNS, in the assay with OVCAR-3 ovarian, with A498 renal, with MALME-3M melanoma and in the assay with HT29 colon was above 100 µM each time. Further, the TGI with MOLT-4 leukemia, in the assay with NCI-H460 lung and with 786-0 renal was above 100 µM in each case.

On to `CCOC(=O)C1C2CCC(C2)C1(CCl)C(=O)OCC` (stereo unspecified), for which the TGI in the assay on SNB-19 CNS, in the assay on SK-MEL-28 melanoma, in the assay with OVCAR-3 ovarian, in the assay on A498 renal, in the assay with MALME-3M melanoma and in the assay with HT29 colon was above 100 µM in each case. Moreover, the TGI in the assay on MOLT-4 leukemia, with NCI-H460 lung and in the assay on 786-0 renal was above 100 µM each time.
